According to a melting point compilation (Tetko et al.; mined from patent text by program, amines drawn as free bases though some values may be those of a salt):

Compound | melting point [°C]
CCOC(=O)C1=C(C)NC(N)=C(C(=O)OCC)C1Cc1cccs1 (stereo unspecified) | 170
CC12CCC3c4ccc(C(=O)O)cc4CCC3C1CCC2C(=O)CCc1ccc(C(=O)O)cc1 (stereo unspecified) | 285 to 290
CCOC(=O)C1=C(C)NC(C)=C(C(=O)OCC)C1c1ccc(Cl)cc1 | 151 to 152
CC1c2c(Cl)cccc2N=C2NC(=O)CN21 (stereo unspecified) | 252
C=C(C)C(=O)OC1c2nccnc2C(=O)N1c1ccc2ccc(Cl)nc2n1 (stereo unspecified) | 255
COc1cc2c(c(C(C)(C)C)c1)OC(=O)C2 | 117 to 118
O=Cc1ccc(-c2cnco2)[nH]1 | 152 to 153
CCOC(=O)c1ccc(OCc2ccc3c(c2)C(C)(C)CCC3(C)C)cc1 | 109 to 111
CCCC[C@H](NC(=O)[C@H](CC(C)C)NC(=O)c1ccc(C)cc1)C(=O)CSCc1ccco1 | 122 to 123
COC(=O)c1cc(Br)cc([N+](=O)[O-])c1SCc1ccccc1 | 65 to 66
CCN1CC(C(=O)Nc2cnccn2)CC2c3cccc4[nH]cc(c34)CC21 (stereo unspecified) | 151 to 155
COc1cc(CCCN2CCc3cc(OC)c(OC)cc3C2)ccc1NC(=O)c1cccc2c(=O)c3cccc(C)c3[nH]c12 | 174
COc1ccc(S(=O)(=O)Nc2ccccc2Nc2cccc(O)c2)cc1 | 165 to 166
CC(=O)C(C)Oc1cc(-n2c(=O)cc(C(F)(F)F)n(C)c2=O)c(F)cc1Br (stereo unspecified) | 119
CCN1C(=O)[C@@H](N)COc2ccccc21 | 97
CCNc1ccc(-c2c(N)nc(N)nc2CC)cc1[N+](=O)[O-] | 275 to 276
CCCCCCCCCCC1(CCCCCCCCCC)c2cc(C=O)ccc2-c2ccc(N(c3ccccc3)c3ccccc3)cc21 | 77 to 78.5
Cn1cc(C(F)(F)F)nc1-c1ccc(OCC(O)CNCCOc2ccc(O)c(C(N)=O)c2)cc1 (stereo unspecified) | 195 to 197
COC(=O)c1c(C)[nH]c(-c2ncccn2)c1C(=O)OC | 140 to 146
COc1cc(Nc2c(NC(C)C(C)(C)C)c(=O)c2=O)c2ncccc2c1 (stereo unspecified) | 243 to 245
CS(=O)(=O)Nc1cccc(Nc2nc(OC3CCCC3)c3cc[nH]c3n2)c1 | 203 to 205
NNc1nncc(-c2ccccc2F)n1 | 171 to 174
C=C1C=C(Oc2cc(C(=O)O)ccc2OC)C1(F)F | 163 to 165
Cc1ccc(C=C2CCc3cc(OCCc4c[nH]cn4)ccc3C2=O)s1 | 69 to 70

Compound | melting point [°C]
COc1ccc(-c2cc(C(N)(C(F)(F)F)C(F)(F)F)sc2-c2ccc(OC)cc2)cc1 | 87 to 90
COc1ccc(-c2nc(NC(C)=O)sc2-c2ccnc(NC(C)=O)c2)cc1 | 262 to 264
CC(C)=CCOc1ccc2c(C)cc(=O)oc2c1C(=O)C=Cc1cccnc1 | 156 to 157
COC(=O)C(Cc1ccc(O)cc1)NC(=O)C(Cc1ccccc1)NC(=O)c1ccc(OC)cc1 (stereo unspecified) | 195 to 197
Cc1cc(C[C@@H](NC(=O)c2ccc(F)c3ccccc23)[C@@H](O)c2ccc(F)cc2)cc(OC(F)(F)C(F)F)c1 (racemic) | 189 to 190
CCOC(=O)C=Cc1csc(-c2ccc(OC)c(C(C)(C)C)c2)c1 | 119 to 120
CC(C)c1cc(-c2ccc(F)cc2)c(C=O)c(C(C)C)n1 | 72 to 75
O=C(O)CCc1cn(Cc2ccc(OCc3csc(-c4ccccn4)n3)cc2)cc1-c1ccccc1 | 117 to 118
Cc1cc(F)ccc1-c1nc(N[C@@H](C)CO)nc2c1ccc(=O)n2-c1ccccc1F | 114 to 120
COc1cc2c(cc1O)CCN(Cc1ccc(OC)c(OC)c1)C2 | 146 to 147
CCOC(=O)C1=C(C)NC(C)=C(C(=O)OCC)C1c1ccccc1C=CC(=O)OC | 138 to 140
COC(=O)c1ccc(-c2nc(-c3ccc(OC)cc3)co2)cc1 | 200 to 202
CCN(C(=O)C1CC1)c1cn(-c2cccnc2)nc1Cl | 111 to 119
CON=C(C(=O)N[C@@H]1C(=O)N[C@@H]1C(=O)N(C)C)c1csc(NC(=O)CCl)n1 (relative stereo) | 160 to 165
CC1(C)CC(SCc2c(C(F)(F)F)nn(-c3ccccc3)c2Cl)=NO1 | 89 to 90
CCCCCCCCCCCCCCCCC(C)(C)C(=O)O | 50 to 53
C[C@@H](NC(=O)OC(C)(C)C)c1nc2c(C(F)(F)F)cccc2c(O)c1C(=O)Nc1nccs1 | 265
O=C(O)Cc1ccc2c(c1)C(O)c1ccccc1CO2 (stereo unspecified) | 132 to 134
OCCCC#Cc1ccc2ccccc2c1 | 37 to 38
COc1ccc(-c2cnn3c(N)c(-c4ccc(F)c(F)c4)c(C)nc23)cc1OC | 230 to 235
CC(=O)Nc1ccc(C=CC2=NNC(=O)CC2C)cc1 (stereo unspecified) | 206 to 207
CC1COc2c(N3CCNC(c4ccccc4)C3)c(F)cc3c(=O)c(C(=O)O)cn1c23 (stereo unspecified) | 238 to 244
O=C(O)CCC(O)c1ccc(-c2ccccc2)c(F)c1 (stereo unspecified) | 133 to 135
CCOC(=O)c1ccccc1NCC(=O)N(C)c1ccccc1 | 100

Compound | melting point [°C]
CC(=O)ON=C1C(=O)Nc2cc(Cl)cc(Cl)c2C1=O | 194 to 195
CN(C)C=Nc1[nH]nc(NCCNC(=O)OC(C)(C)C)c1C#N | 158 to 160
O=C(O)CN(CCc1ccccc1)C(=O)[C@@H]1C[C@@H](S)CN1S(=O)(=O)c1ccc2ccccc2c1 | 198 to 200
COc1cccc(CCCC(=O)O)c1C | 105 to 107
CCCCN=C(CS(C)=O)c1cccc(OC)c1O (stereo unspecified) | 125 to 127
COc1cc2nc(C)c3c4cc5c(cc4ccc3c2cc1OC)OCO5 | > 250
O=C(OCCN1CCCC1)c1c[nH]c2ccccc12 | 145 to 146
O=C(Cn1ccnc1)N1CCC(Oc2c(F)c(F)c(F)c(F)c2F)CC1 | 95 to 96
Cc1cc(S(C)(=O)=O)ccc1C(=O)c1c(S(C)=O)noc1C1CC1 (stereo unspecified) | 142
Cc1cc([C@H]2[C@H](C(=O)Nc3ccc(F)c(F)c3)C2(C)C)ccc1S(N)(=O)=O (relative stereo) | 195 to 198
CC(=O)NC[C@H]1CN(c2ccc(N3CCC(c4nnn[nH]4)CC3)c(F)c2)C(=O)O1 | 148 to 150
COc1cc(N)c(Cl)cc1C(=O)NC1CCN(CC2CCN(C(=O)c3ccco3)CC2)CC1 | 179 to 181
CCCCN(CCCOc1ccc(S(=O)(=O)c2c(C(C)C)cn3ccccc23)cc1)C(C)c1ccc(OC)c(OC)c1 (stereo unspecified) | 108 to 110
O=C(CCCCCN1CCN(c2cccc3c2CCCC3)CC1)N1Cc2ccccc2C1 | 115
COCc1nc2cccc(C(=O)OC)c2n1Cc1ccc(-c2ccccc2-c2nnn[nH]2)cc1 | 191 to 194
O=C(c1ccccc1)N1CCc2c(c(=O)[nH]c3ccccc23)C1 | 275 to 277
Cc1cccc(-c2nc(N)sc2-c2ccnc(-c3ccc(CN4CCOCC4)cc3)c2)n1 | 190 to 192
Cc1cccc2cc3c(=O)n([C@@H](C)c4ccccc4)cc(C(=O)O)c3nc12 | 234 to 235
CCP(=O)(CC)Cc1ccc(NC(=O)C2=Cc3cc(-c4ccc(C)cc4)ccc3OCC2)cc1 | 240 to 241
O=c1cc2c(nn1-c1ccccc1)-c1cc(Cl)ccc1CC2 | 184 to 186
CS(=O)(=O)N1CCn2c(nc3c(N)nc4cc(OCc5ccccc5)ccc4c32)C1 | 266 to 268
CCOC(=O)C1=C(NC(=O)Nc2cc(C(=O)OC(C)C)c(Cl)cc2Cl)CCC1 | 140 to 142
CCN(CC)C(=O)COc1cc(-c2ccccc2)nc2ccccc12 | 97
Cc1ccc(O)c2c1N(Cc1ccccc1)C(=O)C2(C)C | 128 to 129

Compound | melting point [°C]
CS(=O)(=O)NC(=O)C1(CCCCCCCCCCCCC2(C(=O)NCCO)CC2)CC1 | 104 to 105
CCOc1c(C#CCO)cc(C(C)(C)C)cc1C(C)(C)C | 82 to 84
COc1cc(NC(=O)CCCCCN2CCN(C3CCCCC3)CC2)c2nccc(C)c2c1 | 109 to 110
O=C(O)Cc1ccc(NC(=O)C(Cc2ccccc2)NS(=O)(=O)c2ccc(Br)cc2)cc1 (racemic) | 184 to 185
Cc1cccc(C)c1N1Cc2ccccc2P1(C)=O (stereo unspecified) | 128 to 129
CC(C)c1ccc(C2(OC(=O)c3ccccc3)C(=O)c3ccccc3C2=O)c(O)c1 | 117 to 119
Cc1nc(-c2ccc(F)cc2)n(-c2ccc(S(C)(=O)=O)cc2)n1 | 143 to 144
CC(C)(CO)c1ccc(C(=O)Nc2cn3cc(-n4ccnc4)ccc3n2)cc1 | 278 to 280
CCOC(=O)C(=O)Nc1cccc(C#N)c1 | 149 to 150
CN1Cc2c(C(=O)NN)ncn2-c2ccccc2C1=O | 312 to 313
CCc1cnc2c(NC(=O)c3c(Cl)cccc3Cl)cccc2c1CCC(N)=O | 235 to 236
Cn1c2ccc(Cl)cc2c2c(CO)nn(-c3ccccc3)c(=O)c21 | 278 to 280
O=C(Nc1cc(C(F)(F)F)on1)C(Cl)(Cl)Cl | 114
COc1cc2c(OC)cccc2cc1-c1nc2cnccc2[nH]1 | 178 to 180
CCCCCCCCS(=O)(=O)c1ccc(CC(N)(CO)CO)cc1 | 108 to 109
Cc1c(F)c(N2CCC(N)C2)c(Cl)c2c1c(=O)c(C(=O)O)cn2C1CC1 (stereo unspecified) | 124 to 126
COC(=O)c1c(C)cc2cc(OC)c(OC)cc2c1-c1ccnc(Br)c1 | 148 to 150
COc1cc(OC)c(C2=NC(NC(=O)Nc3ccccc3C)C(=O)N(C)c3ccccc32)c(OC)c1 (stereo unspecified) | 50
COc1cc(OCc2ccccn2)ccc1/C=C/c1cc(/C=C/c2cccc3[nH]ccc23)n[nH]1 | 108 to 113
CCC(C)(CC)c1ccc(=O)[nH]n1 | 97 to 99
Nc1c(NCCCN(Cc2ccccc2)c2ccccn2)c(=O)c1=O | 228 to 231
CC(C)(C(=O)c1ccc(N2CCOCC2)cc1)N1CCOCC1 | 114 to 116
CCOc1cc2ncc(C#N)c(NCc3ccc(F)c(F)c3)c2cc1OCC | 167 to 169
CC(=O)OC1CSC(Oc2cnccc2-c2ccc(C(F)(F)F)cc2)C(OC(C)=O)C1OC(C)=O (stereo unspecified) | 168
